This is an account of results in US9783519B2, “Palladium/silver co-catalyzed tandem reactions synthesis of phenylacetophenone derivatives by oxabenzonorbornadienes with terminal alkynes and their anti-tumor or anti-cancer activities” (Hong Kong Baptist University, priority 2015, dated 2017).

The term IC50 denotes the concentration that gives 50% inhibition. In general, melting point refers to the temperature of the solid-liquid transition.

Some results are limits rather than exact numbers.

Series [1] concerns DLD-1 (human colorectal carcinoma cell line). In words: MTT cytotoxicity assay, DLD-1. The conditions noted are these: 48 hrs treatment. Type of series: cell-based. The procedure: (§1) Cytotoxic activities of all compounds were evaluated by MTT assay using KYSE-150 (human oesophagus carcinoma), MKN-45 (human gastric aednocarcinoma), DLD-1 (human colorectal carcinoma cell line), Hep G2 (human hepatocellular carcinoma). […] 3ag, 3al, 3an, 3ea and 3ha also have the same inhibitory effect on different cell lines with IC50 value lower than 10 μM. Thus, except 3ac, 3ad, 3ae, 3ah, and 3ab, the other compounds all exert definitely anti-cancer effect.
(§2) In this study, all compounds were dissolved in dimethyl sulfoxide (DMSO) to make stock solutions and further diluted in culture medium for this experiment. Human cancer cell lines, including one gastric adenocarcinoma cell line (MKN-45), one colon carcinoma cell line (DLD-1), one esophageal carcinoma cell line (KYSE-150) and one hepatocellular carcinoma cell line (HepG2) were cultured in RPMI 1640 or DMEM medium, containing 10% fetal bovine serum and 1% antibiotics (Penicillin and strep). The cell lines were cultured at 37° C. in a humidified environment containing 5% CO2. To determine the effects of the compounds on cell viability, a standard colorimetric 3-(4,5-dimethylthiazol-2-yl)-2,5-diphenyltetrazolium bromide (MTT) assay was used to test the cell number. Cells were seeded in a 96-well plate (4×10^3 cells/well) and allowed to attach overnight. After the recovery, cells were treated with 1.56, 3.125, 6.25, 12.5, 25, 50 μM of compounds in culture medium for 48 hrs. Then, 20 μL of MTT (5 mg/mL stock in PBS) per well was added into the medium (200 μL) and incubated for 4 hrs at 37° C. Finally, the culture medium was removed and 200 μL of DMSO were added to dissolve the purple formazan crystals. Absorbance of the solution was measured using microplate reader spectrophotometer (Bio-Rad Laboratories, Inc., Hercules, Calif.) at a wavelength of 570 nm.
(In general: Formazan colour is commonly taken as a measure of viable cells.)

In series [2] the test system is KYSE-150 cells. The experiment in a line: Wound healing assay. Type of series: cell-based, human. The conditions noted are these: 10 μM, 48 h. Here is the method: Original magnification, 5×.
Further, wound-healing assay was used to test whether those novel compounds could affect cell motility.
A wound-healing assay was performed as follows: cells were seeded in 12 wells plate at 50% confluence in completed medium. After 24 hrs seeding, the monolayer was wounded by scoring with a sterile plastic tip (1 mL), then washed several times with medium to remove cell debris and then incubated in conditioned medium in the absence or presence of tested compounds for various periods of time up to 48 h. […] Cell migration into the wound surface was monitored by Olympus IX71 microscopy and digitally photographed.

The subject of series [3] is KYSE-150 (human oesophagus carcinoma). In words: MTT cytotoxicity assay, KYSE-150. The conditions noted are these: 48 hrs treatment. The series is classed as cell-based. Here is the method:
as §1, §2

For series [4], the system named is Hep G2 (human hepatocellular carcinoma). The experiment in a line: MTT cytotoxicity assay, Hep G2. The series is classed as cell-based. The conditions noted are these: HepG2, 48 hrs treatment. The procedure:
as §1, §2

Series [5] has as its system MKN-45 (human gastric aednocarcinoma). The experiment in a line: MTT cytotoxicity assay, MKN-45. The series is classed as cell-based. The conditions noted are these: 48 hrs treatment. Here is the method:
as §1, §2

Series [6] deals with KYSE-150, MKN-45, DLD-1, Hep G2. The experiment in a line: MTT cytotoxicity assay, summary over the test cell lines. The conditions noted are these: Homo sapiens; on different (not all) cell lines; summary of Table 6; read-out: IC50, inhibitory effect on different cell lines. The series is classed as cell-based. The procedure: as §1, §2
Series [7] concerns KYSE-150 cells. In words: Wound healing assay. The series is classed as cell-based, human. The conditions noted are these: 10 μM.

In turn, `O=C(Cc1ccc2cc(Br)c(Br)cc2c1)c1ccccc1` [Compound 3ea, 2-(6,7-dibromonaphthalen-2-yl)-1-phenylethanone] had a melting point of 152 to 154 °C. Further, in series [1], the IC50 is 2.7 µM. Besides, the “cell migration into the wound” value in the series on KYSE-150 cells [2] was “did not migrate into the wound”. The molecule further showed an IC50 in series [3] of 2.38 µM. It took 16.1 µM to reach half-maximal inhibition in series [4] (IC50). Besides, inhibition in series [5] was half-maximal at 12.1 µM (IC50). The half-maximal inhibitory concentration (IC50) in series [6] is less than 10 µM. In addition, in the series on KYSE-150 cells [7], the “viability of KYSE-150 cells compared to controls” value was “did not alter the viability”.
